Source: ChEMBL document CHEMBL4834403, “Design and Synthesis of Novel Epigenetic Inhibitors Targeting Histone Deacetylases, DNA Methyltransferase 1, and Lysine Methyltransferase G9a with In Vivo Efficacy in Multiple Myeloma” (J Med Chem, 2021)

Target: T1, Histone-lysine N-methyltransferase EHMT2 (Mus musculus, UniProt Q9Z148)
T1 sequence (Q9Z148 whole entry): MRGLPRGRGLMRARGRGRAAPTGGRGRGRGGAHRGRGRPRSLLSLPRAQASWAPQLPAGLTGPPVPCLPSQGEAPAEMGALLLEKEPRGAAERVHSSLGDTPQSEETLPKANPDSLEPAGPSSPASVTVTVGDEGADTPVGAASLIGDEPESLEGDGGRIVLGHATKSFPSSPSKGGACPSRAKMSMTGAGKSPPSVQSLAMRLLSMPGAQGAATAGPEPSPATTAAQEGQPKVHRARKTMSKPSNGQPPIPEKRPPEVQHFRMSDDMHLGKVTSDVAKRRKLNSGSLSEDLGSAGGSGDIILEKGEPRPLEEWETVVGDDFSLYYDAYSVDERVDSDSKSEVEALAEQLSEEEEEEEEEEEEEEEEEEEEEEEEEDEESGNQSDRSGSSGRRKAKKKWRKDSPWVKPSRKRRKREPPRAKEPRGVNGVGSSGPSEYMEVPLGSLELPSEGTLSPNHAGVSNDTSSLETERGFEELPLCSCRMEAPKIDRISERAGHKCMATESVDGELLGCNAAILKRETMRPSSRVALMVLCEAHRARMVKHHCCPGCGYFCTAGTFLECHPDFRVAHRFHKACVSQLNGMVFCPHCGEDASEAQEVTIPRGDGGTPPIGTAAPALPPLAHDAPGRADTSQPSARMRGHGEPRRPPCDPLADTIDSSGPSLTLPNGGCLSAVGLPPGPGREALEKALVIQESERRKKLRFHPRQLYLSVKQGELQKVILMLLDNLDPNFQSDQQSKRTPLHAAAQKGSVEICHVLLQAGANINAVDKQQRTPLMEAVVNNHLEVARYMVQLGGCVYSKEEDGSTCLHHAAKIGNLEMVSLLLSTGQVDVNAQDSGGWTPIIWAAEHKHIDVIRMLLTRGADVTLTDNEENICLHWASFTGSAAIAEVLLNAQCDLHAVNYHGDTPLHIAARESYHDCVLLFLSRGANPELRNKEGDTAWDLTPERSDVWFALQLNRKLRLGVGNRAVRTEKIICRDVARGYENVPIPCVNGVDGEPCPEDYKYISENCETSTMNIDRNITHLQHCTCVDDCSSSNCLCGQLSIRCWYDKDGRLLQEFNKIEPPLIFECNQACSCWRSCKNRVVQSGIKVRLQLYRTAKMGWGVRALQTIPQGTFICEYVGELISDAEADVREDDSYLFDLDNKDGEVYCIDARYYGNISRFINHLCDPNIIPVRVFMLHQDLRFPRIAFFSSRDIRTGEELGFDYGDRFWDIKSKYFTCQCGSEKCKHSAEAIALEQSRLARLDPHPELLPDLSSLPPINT
Assay: Inhibition of mouse thymus 6His-sumo-tagged G9a (969 to 1263 residues) expressed in Escherichia coli BL21 (DE3) using histone H3 as substrate incubated for 30 mins by MALDI-TOF-MS analysis

In the case of `COc1ccc2c(NC3CCN(Cc4ccccc4)CC3)nc(NCCNC(=O)CCCCCC(=O)NO)nc2c1`, the IC50 is reported as 7.14 µM.
